pIC50: −log10 of the molar value. Activity calls are given as the source filed them. The calls are words filed in the database; no cut-off is given here.
Columns and labels:
MCF7 = test: Antiproliferative activity against human MCF7 cells after 48 hrs by MTT assay; assay type: functional, cell-based; conditions: MCF7, 48 h
SGC-7901 = test: Antiproliferative activity against human SGC7901 cells after 48 hrs by MTT assay; assay type: functional, cell-based; conditions: SGC-7901, 48 h
A549 = test: Antiproliferative activity against human A549 cells after 48 hrs by MTT assay; assay type: functional, cell-based; conditions: A549, 48 h
Bel-7402 [1] = test: Antiproliferative activity against human Bel7402 cells after 48 hrs by MTT assay; assay type: functional, cell-based; conditions: for pIC50: Bel-7402, 48 h
Bel-7402 [2] = test: Antimigratory activity in human Bel7402 cells assessed as cell migration at 20 uM incubated for 48 hrs by wound healing assay (reference value: 60%); assay type: functional
HepG2 [3] = test: Downregulation of N-cadherin in human HepG2 cells after 48 hrs by Western blot analysis; assay type: functional, cell-based
HepG2 [4] = test: Antimigratory activity in human HepG2 cells assessed as cell migration at 10 uM incubated for 48 hrs by wound healing assay (reference value: 58%); assay type: functional
HepG2 [5] = test: Upregulation of P21 in human HepG2 cells at 5 to 20 uM after 24 hrs by Western blot analysis; assay type: functional, cell-based
Bel-7402 [6] = test: Cell cycle arrest in human Bel7402 cells assessed as accumulation at G1 phase at 20 uM after 24 hrs by propidium iodide staining-based flow cytometry (reference value: 49%); assay type: functional
Bel-7402 [7] = test: Upregulation of P27 in human Bel7402 cells at 5 to 20 uM after 24 hrs by Western blot analysis; assay type: functional, cell-based
HepG2 [8] = test: Cell cycle arrest in human HepG2 cells assessed as accumulation at G1 phase at 20 uM after 24 hrs by propidium iodide staining-based flow cytometry (reference value: 48%); assay type: functional
Bel-7402 [9] = test: Downregulation of N-cadherin in human Bel7402 cells after 48 hrs by Western blot analysis; assay type: functional, cell-based
Bel-7402 [10] = test: Antimigratory activity in human Bel7402 cells assessed as cell migration at 10 uM incubated for 48 hrs by wound healing assay (reference value: 60%); assay type: functional
HepG2 [11] = test: Antiproliferative activity against human HepG2 cells after 48 hrs by MTT assay; assay type: functional, cell-based
HepG2 [12] = test: Upregulation of P27 in human HepG2 cells at 5 to 20 uM after 24 hrs by Western blot analysis; assay type: functional, cell-based
Bel-7402 [13] = test: Upregulation of P21 in human Bel7402 cells at 5 to 20 uM after 24 hrs by Western blot analysis; assay type: functional, cell-based
Bel-7402 [14] = test: Cell cycle arrest in human Bel7402 cells assessed as accumulation at G1 phase after 24 hrs by propidium iodide staining-based flow cytometry; assay type: functional
Bel-7402 [15] = test: Cell cycle arrest in human Bel7402 cells assessed as accumulation at G1 phase at 10 uM after 24 hrs by propidium iodide staining-based flow cytometry (reference value: 49%); assay type: functional
HepG2 [16] = test: Upregulation of E-cadherin in human HepG2 cells after 48 hrs by Western blot analysis; assay type: functional, cell-based
HepG2 [17] = test: Antiproliferative activity against human HepG2 cells at 5 to 40 uM by MTT assay; assay type: functional, cell-based; conditions: TDE = time-dependent effect
Bel-7402 [18] = test: Antiproliferative activity against human Bel7402 cells at 5 to 40 uM by MTT assay; assay type: functional, cell-based; conditions: TDE = time-dependent effect
HepG2 [19] = test: Cell cycle arrest in human HepG2 cells assessed as accumulation at G1 phase after 24 hrs by propidium iodide staining-based flow cytometry; assay type: functional
HepG2 [20] = test: Cell cycle arrest in human HepG2 cells assessed as accumulation at G1 phase at 10 uM after 24 hrs by propidium iodide staining-based flow cytometry (reference value: 48%); assay type: functional
Bel-7402 [21] = test: Upregulation of E-cadherin in human Bel7402 cells after 48 hrs by Western blot analysis; assay type: functional, cell-based
HepG2 [22] = test: Antimigratory activity in human HepG2 cells assessed as cell migration at 20 uM incubated for 48 hrs by wound healing assay (reference value: 58%); assay type: functional

## O=c1c2c(oc3cc(C(F)(F)F)ccc13)N1C[C@@H]3CCC[N+]4([O-])CCC[C@@H]([C@H]34)[C@H]1CC2 (stereo partly specified)
MCF7
  pIC50: 4.13
SGC-7901
  pIC50: 4.10
A549
  pIC50: 3.94
Bel-7402 [1]
  pIC50: 4.18

## O=c1c2c(oc3cc(O)ccc13)N1C[C@@H]3CCCN4CCC[C@@H]([C@H]34)[C@H]1CC2
MCF7
  pIC50: < 4.00
SGC-7901
  pIC50: < 4.00
A549
  pIC50: < 4.00
Bel-7402 [1]
  pIC50: < 4.00

## Cc1ccc2c(=O)c3c(oc2c1)N1C[C@@H]2CCCN4CCC[C@@H]([C@H]24)[C@H]1CC3
MCF7
  pIC50: 4.31
SGC-7901
  pIC50: 4.33
A549
  pIC50: 4.28
Bel-7402 [1]
  pIC50: 4.52

## O=C1CCC[C@@H]2[C@H]3CCCN4CCC[C@@H](CN12)[C@@H]34 [MATRINE]
MCF7
  pIC50: 2.60
SGC-7901
  pIC50: 2.86
A549
  pIC50: 2.41
Bel-7402 [1]
  Activity: Dose-dependent effect
  pIC50: 2.69

## Cc1cccc2c(=O)c3c(oc12)N1C[C@@H]2CCCN4CCC[C@@H]([C@H]24)[C@H]1CC3
MCF7
  pIC50: 4.28
SGC-7901
  pIC50: 4.29
A549
  pIC50: 4.14
Bel-7402 [1]
  pIC50: 4.39

## O=c1c2c(oc3cc(Cl)ccc13)N1C[C@@H]3CCCN4CCC[C@@H]([C@H]34)[C@H]1CC2
Bel-7402 [2]
  Activity: 85%
HepG2 [3]
  Activity: Dose-dependent effect
HepG2 [4]
  Activity: 80%
HepG2 [5]
  Activity: Active
Bel-7402 [6]
  Activity: 79%
Bel-7402 [7]
  Activity: Active
MCF7
  pIC50: 4.55
SGC-7901
  pIC50: 4.54
HepG2 [8]
  Activity: 65%
Bel-7402 [9]
  Activity: Dose-dependent effect
Bel-7402 [10]
  Activity: 75%
HepG2 [11]
  Activity: Dose-dependent effect
HepG2 [12]
  Activity: Active
Bel-7402 [13]
  Activity: Active
Bel-7402 [14]
  Activity: Dose-dependent effect
Bel-7402 [15]
  Activity: 67%
A549
  pIC50: 4.44
HepG2 [16]
  Activity: Dose-dependent effect
HepG2 [17]
  Activity: Tde
Bel-7402 [1]
  pIC50: 4.60
Bel-7402 [18]
  Activity: Tde
HepG2 [19]
  Activity: Dose-dependent effect
HepG2 [20]
  Activity: 54%
Bel-7402 [21]
  Activity: Dose-dependent effect
HepG2 [22]
  Activity: 83%

## O=c1c2c(oc3cc(C(F)(F)F)ccc13)N1C[C@@H]3CCCN4CCC[C@@H]([C@H]34)[C@H]1CC2
MCF7
  pIC50: 4.51
SGC-7901
  pIC50: 4.46
A549
  pIC50: 4.39
Bel-7402 [1]
  pIC50: 4.50

## O=c1c2c(oc3cccc(O)c13)N1C[C@@H]3CCCN4CCC[C@@H]([C@H]34)[C@H]1CC2
MCF7
  pIC50: < 4.00
SGC-7901
  pIC50: < 4.00
A549
  pIC50: < 4.00
Bel-7402 [1]
  pIC50: < 4.00

## Cc1ccc2c(=O)c3c(oc2c1)N1C[C@@H]2CCC[N+]4([O-])CCC[C@@H]([C@H]24)[C@H]1CC3 (stereo partly specified)
MCF7
  pIC50: 4.27
SGC-7901
  pIC50: 4.24
A549
  pIC50: 4.13
Bel-7402 [1]
  pIC50: 4.31

## COc1cccc2oc3c(c(=O)c12)CC[C@@H]1[C@H]2CCCN4CCC[C@@H](CN31)[C@@H]24
MCF7
  pIC50: 4.13
SGC-7901
  pIC50: 4.09
A549
  pIC50: 4.03
Bel-7402 [1]
  pIC50: 4.16

## O=c1c2c(oc3ccc(O)cc13)N1C[C@@H]3CCCN4CCC[C@@H]([C@H]34)[C@H]1CC2
MCF7
  pIC50: < 4.00
SGC-7901
  pIC50: < 4.00
A549
  pIC50: < 4.00
Bel-7402 [1]
  pIC50: < 4.00

## Cc1ccc2oc3c(c(=O)c2c1)CC[C@@H]1[C@H]2CCCN4CCC[C@@H](CN31)[C@@H]24
MCF7
  pIC50: 4.24
SGC-7901
  pIC50: 4.39
A549
  pIC50: 4.01
Bel-7402 [1]
  pIC50: 4.43

## COc1ccc2c(=O)c3c(oc2c1)N1C[C@@H]2CCCN4CCC[C@@H]([C@H]24)[C@H]1CC3
MCF7
  pIC50: 4.11
SGC-7901
  pIC50: 4.17
A549
  pIC50: 4.01
Bel-7402 [1]
  pIC50: 4.32

## O=c1c2c(oc3ccc(Cl)cc13)N1C[C@@H]3CCCN4CCC[C@@H]([C@H]34)[C@H]1CC2
MCF7
  pIC50: 4.32
SGC-7901
  pIC50: 4.34
A549
  pIC50: 4.24
Bel-7402 [1]
  pIC50: 4.44

## O=c1c2c(oc3ccccc13)N1C[C@@H]3CCCN4CCC[C@@H]([C@H]34)[C@H]1CC2
MCF7
  pIC50: < 4.00
SGC-7901
  pIC50: < 4.00
A549
  pIC50: < 4.00
Bel-7402 [1]
  pIC50: < 4.00

## COc1cccc2c(=O)c3c(oc12)N1C[C@@H]2CCCN4CCC[C@@H]([C@H]24)[C@H]1CC3
MCF7
  pIC50: 4.12
SGC-7901
  pIC50: 4.09
A549
  pIC50: 4.02
Bel-7402 [1]
  pIC50: 4.14

Source: ChEMBL document CHEMBL4477244, “Synthesis and biological evaluation of matrine derivatives as anti-hepatocellular cancer agents” (Bioorg Med Chem Lett, 2016)
